Test results as given in PubChem BioAssay AID1918947 (Molecular Pharmacology Branch, DTP, NCI, 2023).
Where “and” joins values, the source holds several entries; their conditions need not be identical. Equal entries are not always repeated. Each block holds one compound with its values, some of them ahead of it.

Test system: A498 complex spheroid viability
Assay: Anticancer human tumor A498 cell line growth inhibition;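 note: spheroids exposed to agents for seven days before readout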;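 for viability, T/C: 100% = DMSO vehicle-treated spheroids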
Settings: for viability, T/C: stronger effect = lower value
Method in brief: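 Drug combinations with the LSD1 inhibitor iadademstat tested on tumor cells co-cultured as spheroids with endothelial cells and mesenchymal stem cells. Concentrations descended in half-log increments from clinical Cmax or 10 microM.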

[1] = curve of first compound, second compound 0.1 µM
[2] = curve of first compound, second compound 0.316 µM
[3] = curve of first compound, second compound 1 µM
[4] = curve of first compound, second compound 3.16 µM
[5] = curve of first compound, second compound 10 µM

SMILES: CC[C@@]1(O)C(=O)OCc2c1cc1n(c2=O)Cc2cc3c(CN(C)C)c(O)ccc3nc2-1 + NC1CCC(NC2CC2c2ccccc2)CC1
- IC50 [1]: 0.0396 µM
- IC50 [2]: 0.0473 µM
- IC50 [3]: 0.0384 µM
- IC50 [4]: 0.0363 µM
- IC50 [5]: 0.0293 µM
- viability, T/C (second compound 0.1 µM, first compound 0.000316 µM): 82.3%
- viability, T/C (second compound 0.1 µM, first compound 0.001 µM): 82.9%
- viability, T/C (second compound 0.1 µM, first compound 0.00316 µM): 71.7%
- viability, T/C (second compound 0.1 µM, first compound 0.01 µM): 61.2%
- viability, T/C (second compound 0.1 µM, first compound 0.0316 µM): 57.5%
- viability, T/C (second compound 0.1 µM, first compound 0.1 µM): 35.7%
- viability, T/C (second compound 0.316 µM, first compound 0.000316 µM): 96.6%
- viability, T/C (second compound 0.316 µM, first compound 0.001 µM): 88.2%
- viability, T/C (second compound 0.316 µM, first compound 0.00316 µM): 81.8%
- viability, T/C (second compound 0.316 µM, first compound 0.01 µM): 68%
- viability, T/C (second compound 0.316 µM, first compound 0.0316 µM): 59.1%
- viability, T/C (second compound 0.316 µM, first compound 0.1 µM): 37.4%
- viability, T/C (second compound 1 µM, first compound 0.000316 µM): 85.3%
- viability, T/C (second compound 1 µM, first compound 0.001 µM): 82.3%
- viability, T/C (second compound 1 µM, first compound 0.00316 µM): 78.8%
- viability, T/C (second compound 1 µM, first compound 0.01 µM): 62.8%
- viability, T/C (second compound 1 µM, first compound 0.0316 µM): 56.6%
- viability, T/C (second compound 1 µM, first compound 0.1 µM): 32.2%
- viability, T/C (second compound 3.16 µM, first compound 0.000316 µM): 78.7%
- viability, T/C (second compound 3.16 µM, first compound 0.001 µM): 81.5%
- viability, T/C (second compound 3.16 µM, first compound 0.00316 µM): 73.1%
- viability, T/C (second compound 3.16 µM, first compound 0.01 µM): 64.8%
- viability, T/C (second compound 3.16 µM, first compound 0.0316 µM): 53.7%
- viability, T/C (second compound 3.16 µM, first compound 0.1 µM): 30.6%
- viability, T/C (second compound 10 µM, first compound 0.000316 µM): 76.9%
- viability, T/C (second compound 10 µM, first compound 0.001 µM): 79%
- viability, T/C (second compound 10 µM, first compound 0.00316 µM): 69.8%
- viability, T/C (second compound 10 µM, first compound 0.01 µM): 61.9%
- viability, T/C (second compound 10 µM, first compound 0.0316 µM): 50.1%
- viability, T/C (second compound 10 µM, first compound 0.1 µM): 28%

- IC50 (curve of compound): 0.605 µM and 0.543 µM
SMILES: CC1COCCN1c1cc(C2(S(C)(=N)=O)CC2)nc(-c2ccnc3[nH]ccc23)n1 (centres undefined)
- viability, T/C (compound 0.0316 µM): 98.7% and 99.7%
- viability, T/C (compound 0.1 µM): 98.2% and 97.2%
- viability, T/C (compound 0.316 µM): 69.6% and 68.1%
- viability, T/C (compound 1 µM): 34.2% and 28.7%
- viability, T/C (compound 3.16 µM): 19% and 19.6%
- viability, T/C (compound 10 µM): 13.1% and 12%

- IC50 (curve of compound): > 1 µM and 0.381 µM
SMILES: COc1cc(Nc2ncc3c(n2)-c2ccc(Cl)cc2C(c2c(F)cccc2OC)=NC3)ccc1C(=O)O
- viability, T/C (compound 0.00316 µM): 95.5% and 94.2%
- viability, T/C (compound 0.01 µM): 84.6% and 64.9%
- viability, T/C (compound 0.0316 µM): 76.9% and 71.9%
- viability, T/C (compound 0.1 µM): 66.4% and 62.6%
- viability, T/C (compound 0.316 µM): 60% and 54.1%
- viability, T/C (compound 1 µM): 50.4% and 40.4%

SMILES: NS(=O)(=O)OCC1CC(n2ccc3c(NC4CCc5ccccc54)ncnc32)CC1O (centres undefined) + NC1CC1c1ccc(-c2cccc(O)c2)cc1
- IC50 [1]: 0.0572 µM
- IC50 [2]: 0.071 µM
- IC50 [3]: 0.0786 µM
- IC50 [4]: 0.0764 µM
- IC50 [5]: 0.0463 µM
- viability, T/C (second compound 0.1 µM, first compound 0.00949 µM): 99%
- viability, T/C (second compound 0.1 µM, first compound 0.03 µM): 70.4%
- viability, T/C (second compound 0.1 µM, first compound 0.0949 µM): 32.4%
- viability, T/C (second compound 0.1 µM, first compound 0.3 µM): 23.4%
- viability, T/C (second compound 0.1 µM, first compound 0.949 µM): 15.9%
- viability, T/C (second compound 0.1 µM, first compound 3 µM): 12.4%
- viability, T/C (second compound 0.316 µM, first compound 0.00949 µM): 100%
- viability, T/C (second compound 0.316 µM, first compound 0.03 µM): 78.5%
- viability, T/C (second compound 0.316 µM, first compound 0.0949 µM): 39.6%
- viability, T/C (second compound 0.316 µM, first compound 0.3 µM): 21.4%
- viability, T/C (second compound 0.316 µM, first compound 0.949 µM): 15.6%
- viability, T/C (second compound 0.316 µM, first compound 3 µM): 12%
- viability, T/C (second compound 1 µM, first compound 0.00949 µM): 96.2%
- viability, T/C (second compound 1 µM, first compound 0.03 µM): 83.2%
- viability, T/C (second compound 1 µM, first compound 0.0949 µM): 41.1%
- viability, T/C (second compound 1 µM, first compound 0.3 µM): 25.9%
- viability, T/C (second compound 1 µM, first compound 0.949 µM): 16.1%
- viability, T/C (second compound 1 µM, first compound 3 µM): 12.8%
- viability, T/C (second compound 3.16 µM, first compound 0.00949 µM): 101%
- viability, T/C (second compound 3.16 µM, first compound 0.03 µM): 73.7%
- viability, T/C (second compound 3.16 µM, first compound 0.0949 µM): 43.5%
- viability, T/C (second compound 3.16 µM, first compound 0.3 µM): 27.7%
- viability, T/C (second compound 3.16 µM, first compound 0.949 µM): 19%
- viability, T/C (second compound 3.16 µM, first compound 3 µM): 14.9%
- viability, T/C (second compound 10 µM, first compound 0.00949 µM): 90.8%
- viability, T/C (second compound 10 µM, first compound 0.03 µM): 53.2%
- viability, T/C (second compound 10 µM, first compound 0.0949 µM): 40.3%
- viability, T/C (second compound 10 µM, first compound 0.3 µM): 29.9%
- viability, T/C (second compound 10 µM, first compound 0.949 µM): 18.4%
- viability, T/C (second compound 10 µM, first compound 3 µM): 15%
